Values of other authors in patent US20040167145A1, “Active ingredient combination for the pharmacological therapy of nicotine dependence” (priority 2001, published 2004).

Settings: clinical studies; compared with 8% for placebo

## CC(NC(C)(C)C)C(=O)c1cccc(Cl)c1 (stereo not shown) [bupropion]
  1-year abstinence rate: 28%
